Data from PubChem BioAssay AID330 (DTP/NCI, 2004).
Several values for one entry are separate records, joined by “and”; a condition that tells them apart may be missing. Identical values can stand only once. Toxic doses and inconclusive results are not listed. Numbered stars: 1 amine (or outer) side, 2 acyl side, 3 side chain; on linkers, the order of the positions; unused ones are H or OH. Bridge positions count the residues as written; N and C are the ends. Square brackets hold non-standard residues; d marks the D form. Peptide text beside a SMILES is read from it. * marks the point of attachment. ξ: configuration not given here. ξOrn(4,5-diOH) = O=C(C(CC(O)C(O)N[*:3])N[*:1])[*:2]; ξhTyr(βξ-OH,γξ-OH) = NC(C(=O)O)C(O)C(O)c1ccc(O)cc1; ξPro(3ξ-OH,4ξ-Me) = CC1CNC(C(=O)O)C1O; X22 = CCCCC/C=C/C/C=C\CCCCCCCC(=O)*; Hyp = O=C(O)[CH]1C[CH](O)CN1

Test system: P388 leukemia ip, CD2F1 mice, survival T/C
Assay: NCI In Vivo Anticancer Drug Screen. Data for tumor model P388 Leukemia (intraperitoneal) in CD2F1 (CDF1) mice
Details: endpoint: median survival time, higher = longer survival
In short: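 Mice carrying the transplanted tumor received test compound or vehicle. Survival was recorded in each group, and the value is the treated-group measurement divided by that of the vehicle-treated control group.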

[1] = dose: 60.0 mg/kg/injection, schedule: Q01DX005 (ip), vehicle: saline with Tween-80
[2] = dose: 120.0 mg/kg/injection, schedule: Q01DX005 (ip), vehicle: saline with Tween-80
[3] = dose: 240.0 mg/kg/injection, schedule: Q01DX005 (ip), vehicle: saline with Tween-80
[4] = dose: 25.0 mg/kg/injection, schedule: Q01DX005 (ip), vehicle: Klucel (hydroxypropylcellulose) (HPC)
[5] = dose: 100.0 mg/kg/injection, schedule: Q04DX003 (ip), vehicle: saline with Tween-80
[6] = dose: 200.0 mg/kg/injection, schedule: Q04DX003 (ip), vehicle: saline with Tween-80
[7] = dose: 400.0 mg/kg/injection, schedule: Q04DX003 (ip), vehicle: saline with Tween-80
[8] = dose: 100.0 mg/kg/injection, schedule: Q01DX001 (ip), vehicle: Klucel (hydroxypropylcellulose) (HPC)
[9] = dose: 100.0 mg/kg/injection, schedule: Q01DX005 (ip), vehicle: Klucel (hydroxypropylcellulose) (HPC)
[10] = dose: 200.0 mg/kg/injection, schedule: Q01DX001 (ip), vehicle: Klucel (hydroxypropylcellulose) (HPC)
[11] = dose: 50.0 mg/kg/injection, schedule: Q01DX005 (ip), vehicle: Klucel (hydroxypropylcellulose) (HPC)
[12] = dose: 200.0 mg/kg/injection, schedule: Q01DX005 (ip), vehicle: Klucel (hydroxypropylcellulose) (HPC)
[13] = dose: 60.0 mg/kg/injection, schedule: Q01DX005 (ip), vehicle: Klucel (hydroxypropylcellulose) (HPC)
[14] = dose: 120.0 mg/kg/injection, schedule: Q01DX005 (ip), vehicle: Klucel (hydroxypropylcellulose) (HPC)
[15] = dose: 240.0 mg/kg/injection, schedule: Q01DX005 (ip), vehicle: Klucel (hydroxypropylcellulose) (HPC)
[16] = dose: 100.0 mg/kg/injection, schedule: Q01DX009 (ip), vehicle: Klucel (hydroxypropylcellulose) (HPC)
[17] = dose: 50.0 mg/kg/injection, schedule: Q01DX009 (ip), vehicle: Klucel (hydroxypropylcellulose) (HPC)
[18] = dose: 200.0 mg/kg/injection, schedule: Q01DX009 (ip), vehicle: Klucel (hydroxypropylcellulose) (HPC)

With `Cc1cc(C)cc(C(=O)NC(c2ccncc2)C2N=C(c3ccccc3)OC2=O)c1` (centres undefined) the T/C [1] was 98 % of control, the T/C [2] was 94 % of control and the T/C [3] was 94 % of control.
`CCCCC/C=C/C/C=C\CCCCCCCC(=O)NC1CC(O)C(O)NC(=O)C2C(O)C(C)CN2C(=O)C(C(C)O)NC(=O)C(C(O)C(O)c2ccc(O)cc2)NC(=O)C2CC(O)CN2C(=O)C(C(C)O)NC1=O` (stereo not drawn) (X22-[ξOrn(4,5-diOH)]T[Hyp][ξhTyr(βξ-OH,γξ-OH)]T[ξPro(3ξ-OH,4ξ-Me)]; lactam 1-C; configuration not given here) was tested, and the T/C (dose: 0.25 mg/kg/injection, schedule: Q01DX009 (ip), vehicle: lactate) was 100 % of control and the T/C (dose: 0.5 mg/kg/injection, schedule: Q01DX009 (ip), vehicle: lactate) was 104 % of control.
With `c1ccc2c(c1)C1CCC2[n+]2ccccc21` (centres undefined) the T/C (dose: 6.25 mg/kg/injection, schedule: Q01DX005 (ip), vehicle: Klucel (hydroxypropylcellulose) (HPC)) was 108 % of control, the T/C (dose: 12.5 mg/kg/injection, schedule: Q01DX005 (ip), vehicle: Klucel (hydroxypropylcellulose) (HPC)) was 106 % of control and the T/C [4] was 110 % of control.
In the case of `CN(C)CCOC(=O)C(C)(C)Sc1ccc(Cl)cc1`, the T/C [1] is reported as 107 % of control, the T/C [2] is reported as 92 % of control and the T/C [3] is reported as 98 % of control.
With `Clc1ccc(C(Nc2nncs2)Nc2nncs2)c(Cl)c1` the T/C (dose: 100.0 mg/kg/injection, schedule: Q04DX002 (ip), vehicle: Klucel (hydroxypropylcellulose) (HPC)) was 109 % of control and the T/C (dose: 200.0 mg/kg/injection, schedule: Q04DX002 (ip), vehicle: Klucel (hydroxypropylcellulose) (HPC)) was 114 % of control.
In the case of `Cn1nnnc1NN(c1nnnn1C)C1C=CCC=C1`, the T/C [5] is reported as 99 % of control, the T/C [6] is reported as 97 % of control and the T/C [7] is reported as 98 % of control.
In the case of `CC(C)N1COCO[C@H]2CCC[C@@H]21`, the T/C [4] is reported as 113 % of control, the T/C [8] is reported as 93 % of control and the T/C [9] is reported as 113 % of control. For the same molecule, the T/C [10] was 90 % of control.
`CC1=NCC(=O)O1` was tested, and the T/C [11] was 98 % of control, the T/C [9] was 98 % of control and the T/C [12] was 102 % of control.
For `CN(C)c1ccc(C2c3cc4c(cc3OC3(N5CCCC5)CCCCC23)OCO4)cc1` (centres undefined), the T/C [13] was 95 % of control, the T/C [14] was 97 % of control and the T/C [15] was 89 % of control.
In the case of `COC(=O)C1C2C1C1C=CC2n2c(=O)n(-c3ccccc3)c(=O)n21` (centres undefined), the T/C [11] is reported as 97 % of control, the T/C [9] is reported as 97 % of control and the T/C [12] is reported as 110 % of control.
For `Cc1ccc(N=Nc2ccc(N(CCCl)CCCl)cc2C)c(C(=O)O)c1`, the T/C (dose: 12.5 mg/kg/injection, schedule: Q01DX009 (ip), vehicle: saline with Tween-80) was 153 % of control and 177 % of control and the T/C (dose: 25.0 mg/kg/injection, schedule: Q01DX009 (ip), vehicle: saline with Tween-80) was 123 % of control.
In the case of `CN(Cc1cnc2nc(N)nc(N)c2n1)c1c(Cl)cc(C(=O)NC(CCC(=O)O)C(=O)O)cc1Br` (centres undefined), the T/C (dose: 0.3 mg/kg/injection, schedule: Q01DX003 (ip), vehicle: saline) is reported as 183 % of control, the T/C (dose: 0.4 mg/kg/injection, schedule: Q01DX003 (ip), vehicle: saline) is reported as 177 % of control and the T/C [5] is reported as 170 % of control. The T/C [6] was 170 % of control, the T/C [7] was 162 % of control and 195 % of control and the T/C (dose: 600.0 mg/kg/injection, schedule: Q04DX003 (ip), vehicle: saline with Tween-80) was 154 % of control.
`CS(=O)(=O)OCCOS(C)(=O)=O` was tested, and the T/C (dose: 50.0 mg/kg/injection, schedule: Q01DX009 (ip), vehicle: saline) was 111 % of control, the T/C [16] was 92 % of control and the T/C (dose: 100.0 mg/kg/injection, schedule: Q01DX009 (ip), vehicle: saline) was 123 % of control. The T/C (dose: 400.0 mg/kg/injection, schedule: Q01DX009 (ip), vehicle: saline) was 163 % of control.
In the case of `CSc1nnc(CCC(=O)Nc2cc(Cl)ccc2Cl)o1`, the T/C [1] is reported as 109 % of control, the T/C [2] is reported as 100 % of control and the T/C [3] is reported as 97 % of control.
For `CCCSCCCC(=O)O`, the T/C [17] was 100 % of control, the T/C [16] was 100 % of control and the T/C [18] was 104 % of control.
With `CCOC(=O)c1ccc(NCc2cccc([N+](=O)[O-])c2)cc1` the T/C (dose: 100.0 mg/kg/injection, schedule: Q04DX003 (ip), vehicle: saline) was 109 % of control, the T/C (dose: 200.0 mg/kg/injection, schedule: Q04DX003 (ip), vehicle: saline) was 101 % of control and the T/C (dose: 400.0 mg/kg/injection, schedule: Q04DX003 (ip), vehicle: saline) was 101 % of control.
In the case of `CCOC(=O)CCC1(C(=O)OC)C(=O)CCCCC/C=C/1C(=O)OC` (centres undefined), the T/C (dose: 100.0 mg/kg/injection, schedule: Q01DX009 (ip), vehicle: saline with Tween-80) is reported as 113 % of control, the T/C (dose: 200.0 mg/kg/injection, schedule: Q01DX009 (ip), vehicle: saline with Tween-80) is reported as 104 % of control and the T/C (dose: 400.0 mg/kg/injection, schedule: Q01DX009 (ip), vehicle: saline with Tween-80) is reported as 104 % of control.
For `CNc1ccc(O)cc1`, the T/C (dose: 5.0 mg/kg/injection, schedule: Q01DX009 (ip), vehicle: saline sonified) was 100 % of control, the T/C (dose: 10.0 mg/kg/injection, schedule: Q01DX009 (ip), vehicle: saline sonified) was 104 % of control and the T/C (dose: 20.0 mg/kg/injection, schedule: Q01DX009 (ip), vehicle: saline sonified) was 100 % of control.
For `CN1CCC(CNc2ccccc2)CC1`, the T/C (dose: 7.5 mg/kg/injection, schedule: Q01DX005 (ip), vehicle: saline) was 98 % of control and the T/C (dose: 15.0 mg/kg/injection, schedule: Q01DX005 (ip), vehicle: saline) was 98 % of control.
`CCC1NC(C)(C)CC1=C(C)C` (centres undefined) was tested, and the T/C (dose: 6.25 mg/kg/injection, schedule: Q04DX003 (ip), vehicle: saline) was 105 % of control, the T/C (dose: 12.5 mg/kg/injection, schedule: Q04DX003 (ip), vehicle: saline) was 110 % of control and the T/C (dose: 25.0 mg/kg/injection, schedule: Q04DX003 (ip), vehicle: saline) was 110 % of control.
In the case of `O=C1OCCSCCOCCSCCOC(=O)c2cccc1n2`, the T/C [8] is reported as 96 % of control, the T/C [10] is reported as 93 % of control and the T/C (dose: 400.0 mg/kg/injection, schedule: Q01DX001 (ip), vehicle: Klucel (hydroxypropylcellulose) (HPC)) is reported as 102 % of control.
In the case of `CC1(C)OC2OCCC(N=[N+]=[N-])C2O1` (centres undefined), the T/C (dose: 50.0 mg/kg/injection, schedule: Q01DX005 (ip), vehicle: saline with Tween-80) is reported as 96 % of control, the T/C (dose: 100.0 mg/kg/injection, schedule: Q01DX005 (ip), vehicle: saline with Tween-80) is reported as 96 % of control and the T/C (dose: 200.0 mg/kg/injection, schedule: Q01DX005 (ip), vehicle: saline with Tween-80) is reported as 94 % of control.
With `CCOC(=O)Nc1c(C)cc(C)cc1C` the T/C (dose: 25.0 mg/kg/injection, schedule: Q01DX009 (ip), vehicle: Klucel (hydroxypropylcellulose) (HPC)) was 99 % of control, the T/C [17] was 100 % of control and the T/C [16] was 94 % of control. The T/C [18] was 100 % of control.
For `CC/C(=N\NS(=O)(=O)c1ccc(C)cc1)c1ccc(Br)cc1`, the T/C (dose: 100.0 mg/kg/injection, schedule: Q04DX002 (ip), vehicle: saline) was 100 % of control, the T/C (dose: 200.0 mg/kg/injection, schedule: Q04DX002 (ip), vehicle: saline) was 105 % of control and the T/C (dose: 400.0 mg/kg/injection, schedule: Q04DX002 (ip), vehicle: saline) was 96 % of control.
In the case of `NC(=O)C1C2CC3C(C2O)C31C(N)=O` (centres undefined), the T/C (dose: 50.0 mg/kg/injection, schedule: Q01DX005 (ip), vehicle: saline) is reported as 91 % of control, the T/C (dose: 100.0 mg/kg/injection, schedule: Q01DX005 (ip), vehicle: saline) is reported as 92 % of control and the T/C (dose: 200.0 mg/kg/injection, schedule: Q01DX005 (ip), vehicle: saline) is reported as 98 % of control.
In the case of `c1ccc2c(SCCCCCSc3c4ccccc4nc4ccccc34)c3ccccc3nc2c1`, the T/C [13] is reported as 97 % of control, the T/C [14] is reported as 89 % of control and the T/C [15] is reported as 88 % of control.
`Oc1ccccc1C=NCCSSCCN=Cc1ccccc1O` was tested, and the T/C [13] was 106 % of control, the T/C [14] was 101 % of control and the T/C [15] was 108 % of control.
For `O=C(O)CC(O)(CC(=O)O)C(=O)O`, the T/C (dose: 0.12 % in 0.5 ml injection vol, schedule: Q01DX009 (ip), vehicle: water) was 100 % of control, the T/C (dose: 0.25 % in 0.5 ml injection vol, schedule: Q01DX009 (ip), vehicle: water) was 99 % of control and 94 % of control and the T/C (dose: 0.5 % in 0.5 ml injection vol, schedule: Q01DX009 (ip), vehicle: water) was 88 % of control and 90 % of control and 94 % of control.
With `Cc1cc(C)nc(/C=C/c2ccc(/C=C/c3cc(C)cc(C)n3)cc2)c1` the T/C [1] was 97 % of control, the T/C [2] was 87 % of control and the T/C [3] was 92 % of control.
